For this data set, the system named is rats. Briefly: Tolerability after oral administration to rats. It is filed as in vivo. The note with it: 10 mg/kg.

As to `CC#CCn1c(N2CCC[C@@H](N)C2)nc2c1c(=O)n(Cc1ncc3ccccc3n1)c(=O)n2C` [2(80), 1-[(quinazolin-2-yl)methyl]-3-methyl-7-(2-butyn-1-yl)-8-((R)-3-amino-piperidin-1-yl)-xanthine], the “changes in the animals' behaviour” value is “no changes in the animals' behaviour could be detected”.

The record behind these values is US9321791B2, “8-[3-amino-piperidin-1-yl]-xanthines, the preparation thereof and their use as pharmaceutical compositions” (Boehringer Ingelheim International GmbH, priority 2002, dated 2016).
